# Where two headings read alike, the source gives them in different places.
# Columns and labels:
# HIV = assay: IC50 in established virological assays (Table 1), HIV; type: cell-based
# Procedure: (§1) In summary, a set of C10 derivatives (FIG. 12) was designed, synthesized and tested against HCV (which is considered as an established system to monitor drug effects against Flaviviridae) as well as DENV for comprehensive structure-activity relationship (SAR) analysis and target validation. IC50 and CC50 values for compound C10 were determined in established virological assays (Table 1). […] Further, said experiments underline the specificity of compound C10 for flaviviruses.
# Huh7.5 cells [1] = assay: Viability of treated Huh7.5 cells by MTT assay; type: cell-based; settings: 10 μM, 24 h after treatment
# Procedure: Huh7.5 cells were electroporated with HCV-JC1-Luc (reporter virus expressing luciferase via IRES) RNA and treated 24 h later with the best 20 candidates (10 μM). After another 24 h the supernatants were harvested. To quantify infectious particles, untreated Huh7.5 cells were inoculated with the supernatants and 36 h later the luciferase activity was measured. The viability of the same cells was determined 24 h after treatment with inhibitor by MTT assay (tetrazolium salt which is reduced in metabolically active cells resulting in a color change). For both parameters, 100% corresponds to the release or viability of the untreated or DMSO treated control. uninf.=not infected; untr.=not treated. Mean values and SD were derived from n =3 independent infections.
# The viability of the same cells was determined 24 h after treatment with the candidate substances by MTT assay (tetrazolium salt reduced in metabolically active cells resulting in a color change) (FIG. 2). For both parameters, 100% of release or viability corresponds to the untreated or DMSO-treated control.
# [2] = Cytotoxicity in Huh7.5 cells (Cell Titer Glo, ATP); type: cell-based; settings: human, Huh7.5 cells; Huh7.5, 24 h
# Procedure: (§2) Cell viability was measured via the presence of ATP using the Promega Cell Titer Glo kit according to the manufacturer's instructions. Luminescence was detected using the Cytation3 by Biotek. […] (B) The same set of data as shown in FIG. 4A was plotted in a line graph. […] (D) As for FIG. 4A, Huh7.5 cells (1.0×10^4 cells/well) were seeded and incubated with C10 at the indicated concentrations for the indicated time points before measurement of viability using the Promega Cell Titer Glo kit.
# (§3) Cell viability was measured by the presence of ATP using the Promega Cell Titer Glo Kit according to the manufacturer's instructions. Luminescence was detected using a Biotek Cytation3.
# (§4) In the analysis of the data, all values were normalized against the DMSO control and presented in terms of percentage viability. The result is shown in the bar chart of FIG. 4A and the line chart of FIG. 4B; n≥6 with SEM.
# (§5) For this purpose, Huh7.5 cells were seeded, treated and analyzed as described above. The CC50 values for C10, D1, D2, and D3 were calculated using GraphPad Prism6 software with a non-linear regression curve fitting algorithm, as shown in FIG. 4B. It should be noted that the tested compounds precipitate at concentrations above 160 μM in aqueous solutions. For this reason, higher concentrations cannot be tested.
# Huh7.5 cells [3] = assay: Cytotoxicity in Huh7.5 cells (Cell Titer Glo, ATP); type: cell-based; settings: Huh7.5, 24 h
# Procedure: as §2, §3, §4, §5
# HeLa-LC5-RIC cells = assay: Cytotoxicity in HeLa-LC5-RIC cells (Cell Titer Glo); type: cell-based
# Procedure: as §2
# It is shown that compound C10 is not toxic even a high concentrations of up to 40 μM.
# ZIKA = assay: IC50 in established virological assays (Table 1), ZIKA; type: cell-based; settings: Zika virus
# DENV2 = assay: RT-qPCR analysis of virus genomes, DENV2; type: cell-based; settings: Dengue virus
# Procedure: Vero cells were infected with DENV1-4 at an MOI of 1 for 2 h (post infection, p.i., (A)), after which virus was removed, and fresh maintenance medium containing 2% FCS together with the indicated concentration of C10 added. For co-treat condition (c.t., (B)), Vero cells were infected with DENV1-4 at an MOI of 1 in the presence of C10 for 2 h, followed by removal of the virus/C10 inoculums, and addition of fresh 2% fetal calf serum maintenance medium. […] Results represent the mean ±SD for duplicate wells from a single assay, representative of 2 independent experiments (cf. Tables 2A and 2B, infra, for pooled data).
# Viral RNA was extracted using Isolate II RNA extraction kit (Bioline), and the absolute number of RNA copies determined by Taqman One Step RT-qPCR (Applied Biosystems) by extrapolation from a standard curve generated from in vitro—transcribed virus RNA.
# It was decided to test the ability of C10 to inhibit the flaviviruses DENV1-4, KUNV and ZIKV, in addition to the paramyxovirus RSV, as a control.
# [4] = tested on: VP1 polyomavirus, LP1 HPV16, p24 HIV, BSA, GFP; assay: Specificity in the cross-linking assay: other capsid and non-related proteins; type: biochemical
# Procedure: DSS was included as a positive control.
# To study the specificity of C10, capsid proteins of other viruses (VP1 polyomavirus, LP1 HPV16, and p24 HIV) as well as non-related proteins (BSA, GFP), were incubated in the so-called cross-linking assay, with DSS or C10.
# RSV = assay: IC50 in established virological assays (Table 1), RSV; type: cell-based; settings: human respiratory syncytial virus
# Procedure: as §1
# [5] = Metabolic stability in mouse liver microsomes; settings: for % Remain. Mean of 2: with NADPH; for % Remain. without cofactor, Mean of 2: without NADPH cofactor
# Procedure: Microsomal incubations were carried out in 96-well plates in 5 aliquots of […] each (one for each time point). […] Control incubations were performed replacing the NADPH-cofactor system with PBS. […] Incubations were performed in duplicates. Five time points over 40 minutes had been analyzed. The reactions were stopped by adding 12 volumes of 90% acetonitrile-water to incubation aliquots, followed by protein sedimentation by centrifuging at 5500 rpm for 3 minutes. […]. Supernatants were analyzed using the HPLC system coupled with tandem mass spectrometer.
# The elimination constant (kel), half-life (t½) and intrinsic clearance (Clint) were determined in plot of In(AUC) versus time, using linear regression analysis (In order to indicate the quality of the linear regression analysis, the R (correlation coefficient) values are provided. In some cases, the last time point is excluded from the calculations to ensure acceptable logarithmic linearity of decay): […]
structure (smiles),measurement,setting,value
"CCN1/C(=C\C=C\c2sc3cc(NC(C)=O)ccc3[n+]2CC)Sc2cc(NC(C)=O)ccc21.[I-] [C10, 6-acetamido-2-((1E,3E)-3-(6-acetamido-3-ethylbenzo[d]thiazol-2(3H)-ylidene)prop-1-en-1-yl)-3-ethylbenzo[d]thiazol-3-ium iodide]",activity against HIV,HIV,does not act on HIV
same,IC50,"HIV; Human immunodeficiency virus 1, HIV",> 100 µM
same,cell viability (MTT),Huh7.5 cells [1],no negative effect on cell viability
same,CC50 at 24 h,[2],106 µM
same,concentration up to which not toxic,Huh7.5 cells [3],up to 40 μM
same,cytotoxicity,HeLa-LC5-RIC cells,not toxic
same,IC50,ZIKA,0.1 to 0.2 µM
same,EC50,"DENV2; DENV2, read-out: EC50 from RT-qPCR analysis, DENV2, c.t.",0.2 µM
same,EC50,"DENV2; DENV2, read-out: EC50 from RT-qPCR analysis, DENV2, p.i.",0.81 ± 0.48 µM
same,crosslinking effect on other capsid and non-related proteins,[4],either no effect on these proteins or it starts at concentrations around 200 times higher than the IC50
same,IC50,RSV,4.3 µM
same,half-life at 2 mM,"[5]; male, Balb/c, mouse, microsomes, pH 7.4",5.79 h
same,CIint,[5]; mouse liver microsomes,5 µL/min/mg
same,Kel,[5]; mouse liver microsomes,0.002 min⁻¹
same,stability in mouse hepatic microsomal test system,"[5]; mouse, microsomes",good stability
same,% Remain. Mean of 2,"[5]; 0.42 mg protein per ml, 0 min",100%
same,% Remain. Mean of 2,[5]; 10 min,100%
same,% Remain. Mean of 2,[5]; 20 min,96%
same,% Remain. Mean of 2,[5]; 30 min,95%
same,% Remain. Mean of 2,[5]; 40 min,88%
same,"% Remain. without cofactor, Mean of 2",[5]; 0 min,100%
same,"% Remain. without cofactor, Mean of 2",[5]; 40 min,86%

# — US12527773B2, “Flavi-block: a pan-flavivirus inhibitor” (Baden-Württemberg Stiftung GmbH, priority 2020, dated 2026)
